The values that follow come from US20230201217A1 (priority 2019, published 2023).

One data set relates to dogs. Description: Single-dose oral toxicity. Format: in vivo, dog.
The test system of a further data set is male CD-1 mice. Nature of the data set: Cardiovascular radiotelemetry in conscious CD-1 mice. The data set is classed as in vivo, mouse. The text has this: The purpose of this study was to explore the physiological changes associated with mortality. Animals were implanted with a radiotelemetry transmitter in the peritoneal cavity with the catheter inserted in the femoral artery and the sensor tip positioned in the abdominal aorta. […] Within one hour of dosing, average heart rate (FIG. 14) decreased about 50%, and significant decreases in systolic (FIG. 15) and diastolic blood pressure (FIG. 16). In addition, body temperature generally dropped at each collection time point, reaching a maximum difference from baseline at 120 minutes post-dose (average change up to 6.5° C.). Following administration of the 200 mg/kg dose, body temperature continued to drop (up to 10.5° C.) until all mice died (˜12 hours post-dose). These changes in body temperature were considered test article-related and correlated to the observed changes in heart rate. Terminally, there was a further decrease in all of the parameters, with the rectal temperatures falling to as low as 22° C. before the mice died. Observed effects on behavior and activity included tremors, twitches, abnormal gait, lethargy, decreased motor activity, increased response to touch and startle, seizures, gasping and slow respirations, exophthalmia, and stupor.

A further data set relates to monkeys. Description: Single-dose oral toxicity. The data set is classed as in vivo, monkey. The protocol: Single doses up to 300-400 mg/kg and 800 mg/kg appeared to be generally well tolerated in monkeys and rats, respectively (one monkey treated with 400 mg/kg died in the 2-week GLP study on Day 1 of dosing). […] In mice, mortality was consistently seen following single doses 150 mg/kg. Preliminary 5-day repeat-dose range-finding studies were conducted in mice, rats and monkeys. The definitive 14-day studies in mouse and monkey yielded generally similar results to those observed in the 5-day studies.

Data set [1] relates to rats trained to self-administer cocaine. Nature of the data set: Rat cocaine self-administration, oral 18-MC HCl. The following applies: for inhibition of cocaine self-administration: 1 hour post-dose.
Description: The relationship between in vivo efficacy and plasma drug exposure was investigated in rats trained to self-administer cocaine. […] Blood samples were collected immediately after the one hour session in the operant chamber from the arterial catheter. […] Significant differences from vehicle-treated animals were either p<0.01 (indicated as **) or p<0.05 (indicated as *).
Significant difference from vehicle-treated group (0 mg/kg on X axis) was p<0.01 (indicated as **) by one-way ANOVA.
Significant difference from baseline responding was p<0.01 (as indicated by **). […] Blood samples were collected from animals immediately after their cocaine self-administration at approximately 2 hours post dose in the first day of dosing (Day 0), and the last day of dosing (Day 4).
The subject of data set [2] is rats, cocaine seeking behavior. The following applies: 40 mg/kg i.p.; cited from earlier work.
For data set [3], the system named is plasma protein. Nature of the data set: Plasma protein binding. Format: in vitro ADME, Dog. The text has this: (§1) There is no information on the protein binding of any of the metabolites.
Data set [4] relates to plasma protein. Nature of the data set: Plasma protein binding. The data set is classed as in vitro ADME, Monkey.
Excerpt: as §1

The target of a further data set is CYP2B6 (Homo sapiens, UniProt P20813). The following applies: recombinant enzyme.
CYP2B6, sequence (P20813 whole entry): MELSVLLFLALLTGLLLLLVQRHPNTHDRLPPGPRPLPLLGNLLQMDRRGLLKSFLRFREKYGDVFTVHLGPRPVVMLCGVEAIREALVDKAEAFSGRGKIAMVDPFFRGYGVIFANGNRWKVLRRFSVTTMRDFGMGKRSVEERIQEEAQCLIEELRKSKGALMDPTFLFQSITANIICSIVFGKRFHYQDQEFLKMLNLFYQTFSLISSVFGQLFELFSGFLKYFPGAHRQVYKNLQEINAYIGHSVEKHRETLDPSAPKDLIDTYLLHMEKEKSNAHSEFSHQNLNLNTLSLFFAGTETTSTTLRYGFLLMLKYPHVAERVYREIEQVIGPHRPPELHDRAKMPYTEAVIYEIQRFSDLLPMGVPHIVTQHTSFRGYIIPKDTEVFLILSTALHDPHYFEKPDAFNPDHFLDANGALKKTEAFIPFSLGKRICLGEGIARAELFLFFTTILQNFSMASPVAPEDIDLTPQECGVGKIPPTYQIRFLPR

Description for CYP2B6: Control incubations were performed for each assay with appropriate positive inhibitory controls.

With `COCCC1CC2CN3CCc4c([nH]c5ccccc45)C(C(=O)OC)(C2)C13.Cl` (stereo not drawn) [18-MC HCl, 18-Methoxycoronaridine hydrochloride], in the data set with dogs, the “dose at which emesis was seen” value came out at 100 mg/kg. Also, the “average change in body temperature from baseline” value with male CD-1 mice (100 mg/kg, 120 minutes post-dose) is “up to 6.5 °C”. In addition, the mortality entry is on record as “Two of the 6 animals died” with male CD-1 mice (after 100 mg/kg oral dose) and “all of the other animals died” in the data set on male CD-1 mice (after the 200 mg/kg dose (8 hours after 100 mg/kg)). Moreover, the “rectal temperature, terminal” value in the data set on male CD-1 mice (before the mice died) is at least 22 °C. For the same compound, the “drop in body temperature” value in the data set on male CD-1 mice (following the 200 mg/kg dose) is “up to 10.5 °C”. Moreover, the “decrease in average heart rate” value with male CD-1 mice (within one hour of dosing) is recorded as “about 50%”. Besides, the “single dose generally well tolerated” value with monkeys lay in the range of 300 to 400 mg/kg. The “inhibition of cocaine self-administration” value in data set [1] (120 mg/kg p.o.) amounted to 50%; in data set [1] (800 mg/kg p.o.), 82%. Moreover, the “inhibition of cocaine self-administration on repeated dosing” value in data set [1] (600 mg/kg/day, 5 consecutive days) is on record as “did not result in greater inhibition”. In addition, in data set [2], the “reinstatement effect of cues associated with cocaine self-administration” value was “blocked the reinstatement effect”.

On to `COCC[C@H]1CC2CN3CCc4c([nH]c5ccccc45)[C@](C(=O)OC)(C2)[C@H]13` [18-MC, 18-methoxycoronaridine], for which the “% Bound Mean ± SD” value in the data set on plasma protein [3] (200 ng/mL) was found to be 92.1 ± 1.78%; in the data set with plasma protein [3] (600 ng/mL) it was 94.8 ± 1.42%; in the data set on plasma protein [3] (5,000 ng/mL) it was 93.2 ± 0.153%; in the data set with plasma protein [4] (200 ng/mL) it was 98.4 ± 0.643%; with plasma protein [4] (600 ng/mL), 97.7 ± 0.100%; in the data set with plasma protein [4] (5,000 ng/mL), 97.2 ± 0.100%. The “Average % Bound Mean ± SD” value is listed as 93.4 ± 1.36% in the data set with plasma protein [3] (average of 3 concentrations) and 97.8 ± 0.603% in the data set on plasma protein [4] (average of 3 concentrations). Besides, at CYP2B6, the 50% inhibitory concentration (IC50) is above 100 µM.
